This is an account of results in patent US20220235136A1, “METHODS AND COMPOSITIONS FOR TREATING A DISEASE OR DISORDER” (YALE UNIVERSITY, priority 2019, published 2022).

In test [1] the test system is B16 melanoma. Put plainly: subcutaneous B16 melanoma mouse tumor model. To be noted: alone or combination.
Description: For B16 tumor model, C57BL/6 mice were inoculated subcutaneously with B16 melanoma at 2×1^5 per mouse. […] CD93 mAb (300 μg i.p.) treatment was administrated on the day of randomization (day 0), day 4 and day 9. 5-FU (3.5 mg i.p.) was administrated on day 2 and day 7. Measurements of tumor size were taken every 2 or 3 days. When tumor volume was exceeding 2000 mm^3 and/or ulceration formed, tumor bearing mice were considered as death for the calculation of survival curve.
For test [2], the target named is T1, human IGF1R (Homo sapiens, UniProt P08069).
T1 construct: expressed in transfected cells; host or cells: CHO
The test can be described thus: IGFBP7-Ig binding to IGF1R transfected CHO cells (flow cytometry). As to the method: Wild type CHO and IGF1R transfected CHO cells were stained for human IGF1R staining antibody to confirm surface IGF1R expression. At the same time, cells were incubated with IGFBP7-Ig for possible interaction by flow cytometry analysis, […]

In test [3] the target is T2, CD93 binding by MMRN2 (Homo sapiens, UniProt Q9NPY3).
T2 construct: expressed in transfected cells
T2 sequence (Q9NPY3 22-652): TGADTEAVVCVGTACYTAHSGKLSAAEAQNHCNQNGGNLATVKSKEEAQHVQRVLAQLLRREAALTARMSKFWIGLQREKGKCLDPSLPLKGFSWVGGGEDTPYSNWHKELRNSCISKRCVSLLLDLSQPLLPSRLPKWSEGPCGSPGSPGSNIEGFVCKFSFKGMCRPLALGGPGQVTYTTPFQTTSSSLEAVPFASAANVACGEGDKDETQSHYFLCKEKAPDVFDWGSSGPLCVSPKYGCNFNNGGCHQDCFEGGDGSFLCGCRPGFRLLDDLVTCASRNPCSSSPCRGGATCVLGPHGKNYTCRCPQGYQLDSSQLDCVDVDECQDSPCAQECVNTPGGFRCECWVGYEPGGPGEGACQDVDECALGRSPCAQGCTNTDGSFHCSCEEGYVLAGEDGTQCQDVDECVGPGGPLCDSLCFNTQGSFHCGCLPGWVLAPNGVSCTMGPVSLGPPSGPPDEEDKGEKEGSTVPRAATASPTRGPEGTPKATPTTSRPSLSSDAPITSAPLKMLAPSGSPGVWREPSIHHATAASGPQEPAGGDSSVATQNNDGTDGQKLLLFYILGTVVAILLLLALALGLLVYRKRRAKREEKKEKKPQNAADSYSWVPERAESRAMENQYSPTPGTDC
T2 sequence (Q9H8L6 23-949 partner): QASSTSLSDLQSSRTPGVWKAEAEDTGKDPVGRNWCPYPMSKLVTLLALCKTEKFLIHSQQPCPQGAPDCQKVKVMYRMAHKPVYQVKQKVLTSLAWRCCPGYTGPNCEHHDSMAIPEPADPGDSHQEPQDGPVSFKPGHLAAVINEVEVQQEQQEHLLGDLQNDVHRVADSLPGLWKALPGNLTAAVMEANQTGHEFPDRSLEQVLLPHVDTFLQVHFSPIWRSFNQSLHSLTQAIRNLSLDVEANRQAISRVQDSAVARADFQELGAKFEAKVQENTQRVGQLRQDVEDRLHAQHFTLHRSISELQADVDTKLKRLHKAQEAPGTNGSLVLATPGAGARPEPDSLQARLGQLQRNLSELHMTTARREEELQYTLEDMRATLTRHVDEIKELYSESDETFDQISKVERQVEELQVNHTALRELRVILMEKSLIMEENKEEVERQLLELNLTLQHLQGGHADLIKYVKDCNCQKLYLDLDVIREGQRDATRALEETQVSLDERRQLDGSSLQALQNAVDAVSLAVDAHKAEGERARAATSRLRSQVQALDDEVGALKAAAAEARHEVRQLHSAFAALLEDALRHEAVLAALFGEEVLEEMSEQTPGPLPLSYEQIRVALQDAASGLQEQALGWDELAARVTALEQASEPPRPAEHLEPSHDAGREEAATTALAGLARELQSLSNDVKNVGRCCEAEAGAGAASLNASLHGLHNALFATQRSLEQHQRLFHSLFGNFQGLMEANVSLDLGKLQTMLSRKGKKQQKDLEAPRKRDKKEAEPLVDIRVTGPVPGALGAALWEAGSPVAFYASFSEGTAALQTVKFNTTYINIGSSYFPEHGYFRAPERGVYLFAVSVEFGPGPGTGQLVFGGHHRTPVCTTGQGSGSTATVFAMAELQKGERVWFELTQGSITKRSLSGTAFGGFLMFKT
Put plainly: MMRN2-Ig binding to CD93-expressing CHO cells in the presence of IGFBP7-His. The note with it: IGFBP7 added. As to the method: In FIG. 28A, binding of HEK293 T cells transfected to express group 14 C-type lectin molecules were stained for the binding of IGFBP7-Ig and MMRN2-Ig. In FIG. 28B. CHO cells stably expressing CD93 were stained with control or MMRN2-Ig, with or without the presence of IGFBP7-His protein. In FIG. 28C, well coated with IGFBP7-His protein were incubated with CD93-His protein before examining for MMRN2-Ig binding by ELISA. Wells coated with CD93-His protein were used as a positive control. In FIG. 28D. HEK293T cells transfected with control or CD93 construct were stained with MMRN-Ig for binding, with or without the presence of anti-mCD93 (7C10). In FIG. 28E HEK293T cells transfected to express different mouse CD93 mutants were stained with anti-CD93 (7C10), IGFBP7-Ig, and MMRN2-Ig.

Test [4] relates to HUVEC cells. Put plainly: HUVEC tube formation and transwell migration assay with exogenous IGFBP7 protein. Type of test: cell-based, human. The protocol: Pooled human umbilical vein ECs (HUVEC) purchased from Thermo Fisher were cultured in Medium 200 with LVES (Life Technologies). C57BL/6 mouse primary aortic ECs and the endothelium culture medium with supplement were purchased from Cell Biologics. For tube formation, HUVECs at 2×10^4 cells/ml were plated on Matrigel in 24-well plate. Image was recorded even 4-6 hours after incubation. The Transwell 6.5 mm polycarbonate membrane inserts pre-loaded in 24-well culture plates (Corning 3422, 8 um) were used in the cell migration model. HUVEC cells at 1×10^5/ml in 200 μl were loaded into each 24-well insert with 500 μl IBS-containing medium with different reagents in the lower chamber. After approximately 20 hours, the migrated cells were fixed with methanol, stained with Giemsa solution and counted under a light microscope.

Test [5] addresses T3, CD93 (Homo sapiens, UniProt Q9NPY3).
T3 construct: expressed in transfected cells; host or cells: 293 cells (CD93+ 293)
T3 sequence (Q9NPY3 22-652): T2 sequence (Q9NPY3 22-652)
The test can be described thus: binding of Ig fusion proteins to CD93 transfectant (flow cytometry). The source says: FIGS. 10A-10B show identification of the binding domain on IGFBP7 for CD93. Each extracellular domain for IGFBP7, including insulin binding (IB). Kazal, and Ig, was swapped with the corresponding domain on IGFBPL1 using PCR cloning and fused to a C-terminal Ig. These chimeric mutants were transiently expressed in HEK293T cells and supernatants were used to stain CD93 transfectant. FIG. 10A depicts whether multiple chimeric IGFBP7 mutants bind to CD93. FIG. 10B depicts various human genes containing IB-domain constructed onto an expression vector containing Fc-Tag. Constructs were transiently transduced into HEK293T cells to produce Fc tagged fusion proteins in the supernatant. Supernatant was used to stain CD93 transfectant by flow cytometry. Binding index represents the ratio of binding MFI of CD93 transfectant to control cells.
The IGFBP7-IGFBPL1 chimeras were generated by two-step PCR. […]
Cell surface and intercellular staining and analysis by flow cytometry were followed the protocol previously described (71). Dead cells were excluded with SYTOX® (Blue Dead Cell Stain Kit (Thermo Fisher Scientific). Flow cytometric analysis was conducted with a BD FACS Calibur or a BD LSRFortessa™ cell analyzer (BD Bioscience, Franklin Lakes, N.J. USA), and then data were analyzed by FlowJo software (Tree Star Inc.)

The subject of test [6] is IGFBP7 expression in tumor endothelial cells. To be noted: 24 hours after treatment; published RNA-Seq data; cited from earlier work.

T1 sequence (P08069 31-736 limits assumed): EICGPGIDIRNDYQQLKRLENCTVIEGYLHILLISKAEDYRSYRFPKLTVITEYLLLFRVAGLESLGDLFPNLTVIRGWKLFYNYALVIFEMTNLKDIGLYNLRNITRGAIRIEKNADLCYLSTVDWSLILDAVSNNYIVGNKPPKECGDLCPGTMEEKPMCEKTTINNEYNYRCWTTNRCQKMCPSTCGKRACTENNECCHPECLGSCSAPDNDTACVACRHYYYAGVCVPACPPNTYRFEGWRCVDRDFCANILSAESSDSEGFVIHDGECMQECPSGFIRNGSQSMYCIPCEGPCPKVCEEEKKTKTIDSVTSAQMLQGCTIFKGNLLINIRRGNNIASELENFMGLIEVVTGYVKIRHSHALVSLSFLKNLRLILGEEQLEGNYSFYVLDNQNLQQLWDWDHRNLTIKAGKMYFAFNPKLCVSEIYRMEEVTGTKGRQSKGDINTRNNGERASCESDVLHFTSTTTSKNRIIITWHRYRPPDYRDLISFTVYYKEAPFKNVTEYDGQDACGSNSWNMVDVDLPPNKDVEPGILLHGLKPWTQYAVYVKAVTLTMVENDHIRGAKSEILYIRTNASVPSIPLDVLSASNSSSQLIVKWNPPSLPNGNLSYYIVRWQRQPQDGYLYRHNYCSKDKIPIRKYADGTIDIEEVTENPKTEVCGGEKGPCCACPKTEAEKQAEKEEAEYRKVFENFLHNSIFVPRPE
T1 sequence (P08069 741-1367 limits assumed): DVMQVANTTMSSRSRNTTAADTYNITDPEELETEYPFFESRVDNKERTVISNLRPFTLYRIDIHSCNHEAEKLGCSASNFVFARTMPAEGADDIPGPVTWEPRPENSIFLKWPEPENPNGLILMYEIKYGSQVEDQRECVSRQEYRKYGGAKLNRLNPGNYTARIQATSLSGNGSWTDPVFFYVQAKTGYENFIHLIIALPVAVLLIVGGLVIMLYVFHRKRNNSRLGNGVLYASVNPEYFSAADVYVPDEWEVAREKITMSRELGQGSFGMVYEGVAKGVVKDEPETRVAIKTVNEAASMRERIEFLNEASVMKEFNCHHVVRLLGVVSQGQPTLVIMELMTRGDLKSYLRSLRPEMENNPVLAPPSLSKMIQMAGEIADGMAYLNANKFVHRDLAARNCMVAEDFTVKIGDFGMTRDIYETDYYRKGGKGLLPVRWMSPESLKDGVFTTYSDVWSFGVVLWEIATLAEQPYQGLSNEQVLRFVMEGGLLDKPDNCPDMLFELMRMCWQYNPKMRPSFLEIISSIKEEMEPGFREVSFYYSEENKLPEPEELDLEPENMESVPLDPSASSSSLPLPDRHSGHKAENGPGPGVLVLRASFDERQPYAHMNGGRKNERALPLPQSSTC

Turning to `O=c1[nH]cc(F)c(=O)[nH]1` [5-FU, 5-fluorouracil], the B16 tumor growth result in test [1] was “modestly inhibited”.
On to “IGFBP7: a secreted protein of the insulin growth factor binding protein (IGFBP) family; recombinant protein / Fc fusion”, for which the “binding to human IGF1R transfectant” value in test [2] is given as “fails to bind”. Moreover, the “effect on the CD93 binding by MMRN2” value in test [3] is “did not interfere”. For the same molecule, the “tube formation or EC migration in CD93 knockdown HUVEC cells” value in test [4] (CD93 siRNA) was “lost its effect”. Besides, in test [4] (exogenous protein added), the “tube formation and proliferation of wild type HUVEC cells” value is listed as “increased”. Moreover, the “binding to CD93 293 cells / CD93 transfectant” value in test [5] (flow cytometry) is reported as “strongly”. For the same molecule, in test [5] (transfected HEK293T cells), the “binding to group 14 C-type lectin molecules” value is given as “only bound to CD93”.
With aflibercept: a VEGF inhibitor, the “IGFBP7 in tumor ECs” value in test [6] is on record as “significantly inhibited”.
